From patent publication US20230293699A1, “USE OF A BORON CLUSTER AS TRANSMEMBRANE CARRIER” (CONSTRUCTOR UNIVERSITY BREMEN GGMBH, priority 2020, published 2023)

What was measured:
[1] = Transport of a bioactive molecule through a membrane by fused, multinuclear and iodinated clusters
Source text: Also fused boron clusters and multinuclear boron clusters were successfully used as transporters for a bioactive molecule through a membrane.

[2] = tested on: Escherichia coli Top10 strain; experiment: E. coli Top10 viability with kanamycin A and B1; format: cell-based
Experimental: Bar graphs (left) and time course (right) of E. coli Top10 viability in the presence of different concentrations of kanamycin monosulfate (0, 2500, 3000 or 3500 nM) and B1 (0, 500, 750 or 1000 μM) in LB broth at 37° C.; error bars (shown on the right) refer to the standard deviation (n=3; V (%): E. coli Top10 viability, [KA] […]
For kanamycin A, effective passage through the cell membrane into the cytosol is essential to reach its intracellular targets. […] In the absence of the cluster, E. coli retained viability (60%), which disappeared almost completely (<5%) in the presence of the antibiotics carrier (FIG. 5). The enhanced antibiotic activity is attributed to the boron cluster's carrier potential as all other factors were left the same.

[3] = HPTS/DPX vesicle transport assay; format: biochemical; details: for transport of positive, zwitterionic and neutral cargo into vesicles: cargo: singly charged, neutral biomolecules, vitamins, antibiotics, neuromuscular blocking agents, proteins; for transport of heptaarginine across the lipid membrane of the vesicles: cargo heptaarginine (H-Trp-Arg7-OH), HPTS fluorescence increase
Source text: A: Heptaarginine, B: Heptalysine, C: Protamine, D: Acethylcholine, E: Pancuronium, F: Vecuronium, G: Vitamin B1, H: Ranitidin, I: Tryptophan, J: Ampicilin, K: Phenylalanine, L: Phalloidin, M: Glutamic acid, and N: Bovine albumin. +: positively charged cargos, +/−: zwitterionic cargos, ©: neutral cargo, and −: negatively charged cargos;
A hydrophilic heptaarginine peptide (H-Trp-Arg7-OH) which is unable to spontaneously translocate across neutral phosphocholine lipid vesicles in the absence of counterion activators was used as prototype for cationic cell-penetrating molecular scaffolds (peptides and polymers). The capability of boron clusters to activate the transport of the heptaarginine peptide (H-Trp-Arg7-OH) was investigated first in large unilamellar vesicles (LUVs). The HPTS/DPX assay, that uses 8-hydroxypyrene-1,3,6-trisulfonate and p-xylene-bis-pyridinium, was implemented to monitor peptide-transport activation by the clusters. This assay not only reports on the potential of a synthetic carrier to transport the positively charged peptide into a vesicle, but also to shuttle the cationic quencher DPX to the outside.
Transport can accordingly be monitored, and the activator efficacy quantified, by a time-resolved fluorescence increase at different concentrations of the carrier.
HTPS emission was monitored during the sequential addition of the globular cluster carrier and peptide cargo; a strong detergent (Triton® X-100) was added at the end to affect vesicle lysis and complete dye release that allowed a normalization of the fluorescence intensity data.
This was validated in vesicle transport experiments, which included targets which have not been previously accessible to other non-covalent synthetic carriers or counterion activators. The targets included singly charged, zwitterionic, and neutral biomolecules (such as acetylcholine and amino acids), vitamins, antibiotics, neuromuscular blocking agents and proteins.

Cereblon E3 Ligase = biological target: T1, Cereblon E3 Ligase (Homo sapiens, UniProt Q96SW2); experiment: NanoBRET TE Intracellular E3 Ligase Assay (CRBN target engagement); format: cell-based; details: dBET1 in presence vs absence of B1 (0, 25, 50 μM)
T1 construct: expressed in transfected cells
T1 sequence (Q96SW2 whole entry): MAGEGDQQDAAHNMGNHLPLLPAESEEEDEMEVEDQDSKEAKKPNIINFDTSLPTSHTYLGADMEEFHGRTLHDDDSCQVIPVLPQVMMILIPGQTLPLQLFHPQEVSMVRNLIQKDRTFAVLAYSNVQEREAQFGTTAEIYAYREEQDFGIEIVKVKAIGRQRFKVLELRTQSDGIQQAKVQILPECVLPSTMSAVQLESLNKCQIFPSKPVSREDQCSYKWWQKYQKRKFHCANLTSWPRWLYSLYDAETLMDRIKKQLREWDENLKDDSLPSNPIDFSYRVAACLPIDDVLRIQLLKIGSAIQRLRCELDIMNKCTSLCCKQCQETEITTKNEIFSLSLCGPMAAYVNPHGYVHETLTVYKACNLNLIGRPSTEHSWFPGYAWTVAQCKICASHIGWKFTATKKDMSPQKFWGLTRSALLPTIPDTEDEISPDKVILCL
Experimental: Crossbars and error bars indicate mean and standard deviation; values obtained in each experimental value are represented with a different shape;
For dBET1, a PROTAC with known low permeability, it was shown that B1 enhances its activity. The internalization of this PROTAC in the absence and presence of the cluster was assessed by its ability to bind to the Cereblon E3 Ligase by using a NanoBRET™ TE Intracellular E3 Ligase Assay. Enhanced uptake of dBET1 was observed (factor 2-3 decrease in IC50 value).

mammalian cell = experiment: Mammalian cell survival; format: cell-based; details: 500 μM
HeLa cells = experiment: Tm-Arg8 endosomal escape by confocal fluorescence microscopy; format: cell-based
Experimental: Cells were incubated with 1 μM Tm-Arg8 and 0 (left picture) or 10 μM clusters diluted in HKR buffer for 1 hour, washed twice with HKR buffer, and imaged by confocal fluorescence microscopy; Images show TAMRA fluorescence (light gray) and the brightfield in the inset pictures; scale bars: 50 μm;
The potential of boron clusters to trigger the endosomal escape into live cells was first studied for oligocationic peptides as cargo. As a prototype, the octaarginine peptide labelled with carboxytetramethylrhodamine (Tm-Arg8) was selected, which at low concentrations (i.e., 1 μM) enters cells by endocytosis and remains trapped in the intracellular compartments. The cytosolic delivery of Tm-Arg8 was followed by confocal microscopy in the presence and absence of superchaotropic boron clusters (FIG. 4).

## 8,8′-I2-(1,2-C2B9H10)2-3,3′-Co^− [CS6]
[1]
  use as transporter / active cluster for a bioactive molecule through a membrane: successfully used as active clusters

## NC[C@H]1O[C@H](O[C@H]2[C@H](O)[C@@H](O[C@H]3O[C@H](CO)[C@@H](O)[C@H](N)[C@H]3O)[C@H](N)C[C@@H]2N)[C@H](O)[C@@H](O)[C@@H]1O [kanamycin A]
[2]; Escherichia coli, TOP10STRAIN, read-out: E. coli viability
  viability at 3.5 µg/mL: 60%
[2]; antibiotic transported by boron cluster
  antibiotic effectiveness in bacteria: increased its effectiveness

## (1,2-C2B9HO2-3,3′-Co^− [CS1]
[1]
  use as transporter / active cluster for a bioactive molecule through a membrane: successfully used as active clusters

## (1,7-C2B9H11)2-2,2′-Co^− [CS2]
[1]
  use as transporter / active cluster for a bioactive molecule through a membrane: successfully used as active clusters

## (8-I-1,2-C2B9H10)-(1′2′-C2B9H11)-3,3′-Co^− [CS4]
[1]
  use as transporter / active cluster for a bioactive molecule through a membrane: successfully used as active clusters

## B10Br10^2− [B4]
[3]
  transport of positive, zwitterionic and neutral cargo into vesicles: same trends were reproduced in transport efficiency

## B12Br11—O-n-C3H7^2− [B2]
[3]
  transport of heptaarginine across the lipid membrane of the vesicles: little influence

## B12Br12^2−
[3]; cargo glutamate and albumin
  transport of negatively charged cargo into vesicles: with the exception of the negatively charged molecules (glutamate and albumin)
[3]
  transport of positive, zwitterionic and neutral cargo into vesicles: transported all types of cargo (positive and neutral)
[2]; kanamycin A 3.5 μg/ml in the presence of B1 500 μM
  E. coli viability: < 5%
Cereblon E3 Ligase
  decrease in IC50 value of dBET1: 2-3 factor
Mammalian cell
  compatibility with mammalian cell survival: compatible with mammalian cell survival

## B12H11NBD^− [B3]
[3]
  transport of heptaarginine across the lipid membrane of the vesicles: efficient transport
HeLa cells; 1 μM Tm-Arg8, 10 μM cluster, HKR buffer, 1 hour
  Tm-Arg8 peptide endosomal escape (diffuse cytosolic fluorescence): excellent peptide endosomal escape
HeLa cells; fluorescent cluster with Tm-Arg8
  peptide and cluster colocalization: significant peptide and cluster colocalization

## pyrene butyrate [reference compound]
[3]; analytes acetylcholine, tryptophan, ampicillin, vecuronium and phalloidin, comparison activator
  fluorescence response (transport) of zwitterionic or neutral analytes: None of the selected, zwitterionic or neutral, analytes (acetylcholine, tryptophan, ampicillin, vecuronium and phalloidin) showed any fluorescence response
